Results on 8 compounds are retold here after ChEMBL document CHEMBL1201862, “PubChem BioAssay data set” (2004).

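Values below derive from 48-hour exposures of cells grown in 96-well plates, with endpoints linearly interpolated between the two concentrations bracketing the appropriate inhibition level. Abbreviation: GI50, concentration required for 50% inhibition of growth.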 Active and inactive are the calls of the source. Cut-off read from the data, not from the text of the source: active = GI50 up to about 1.1 µM and inactive = higher.

Test systems include 786-0; Hs-578T; HL-60; COLO 205; MDA-MB-231; UACC-62; CCRF-CEM; OVCAR-4; SK-MEL-5; HCT-15; NCI/ADR-RES; OVCAR-5; MOLT-4; EKVX; TK-10; A498; NCI-H522; CAKI-1; HCT-116; RXF 393.
Common to all, as to assay: growth of human tumour cells (NCI), 48 h

As for `COC(=O)C1(N2CCOCC2)CCC([C@@H](c2ccccc2)C(C)[N+](=O)[O-])C1` (stereo partly specified), the GI50 is 75.9 µM (inactive) in the experiment on 786-0; > 100 µM (inactive) in the experiment with Hs-578T; 85.3 µM (inactive) in the experiment on HL-60; 64.6 µM (inactive) in the experiment on COLO 205; > 100 µM (inactive) with MDA-MB-231; > 100 µM (inactive) in the experiment with UACC-62. Moreover, the GI50 with CCRF-CEM is 0.603 µM (active); in the experiment with OVCAR-4, 55.5 µM (inactive); in the experiment on SK-MEL-5, > 100 µM (inactive); with HCT-15, 66.8 µM; in the experiment with NCI/ADR-RES, > 100 µM (inactive); in the experiment on OVCAR-5, > 100 µM (inactive). Moreover, the GI50 in the experiment with MOLT-4, in the experiment on EKVX, in the experiment on TK-10 and with A498 was > 100 µM (inactive) throughout.
On to `C=C1CC(COc2cc(=O)oc3ccccc23)(c2ccccc2)OC1=O` (stereo unspecified), for which the GI50 with 786-0 was 1.51 µM (inactive); in the experiment with Hs-578T, 3.53 µM (inactive); with HL-60, 0.407 µM (active); with COLO 205, 1.51 µM (inactive); with NCI-H522, 1.56 µM (inactive); in the experiment with MDA-MB-231, 3.61 µM (inactive). Moreover, the GI50 in the experiment with UACC-62 was 1.41 µM (inactive); in the experiment on CCRF-CEM it was 0.625 µM (active); with OVCAR-4, 2.12 µM (inactive); in the experiment on SK-MEL-5 it was 1.71 µM (inactive); with HCT-15, 1.82 µM; with NCI/ADR-RES, 2.96 µM (inactive). Further, the GI50 is 8.07 µM (inactive) in the experiment with OVCAR-5; 1.3 µM (inactive) in the experiment with CAKI-1; 7.94 µM (inactive) in the experiment on MOLT-4; 6.27 µM (inactive) in the experiment with EKVX; 1.46 µM (inactive) in the experiment with HCT-116; 1.59 µM (inactive) in the experiment on TK-10. In addition, in the experiment on A498, the GI50 is 2.38 µM (inactive).
Take `COc1ccc(-c2nc3c(C(=O)NCCN(C)C)cccc3c3ccccc23)cc1`: the GI50 in the experiment with 786-0 is 2.49 µM (inactive); in the experiment on Hs-578T, 5.3 µM (inactive); in the experiment with HL-60, 2.07 µM (inactive); in the experiment with COLO 205, 1.99 µM (inactive); in the experiment with NCI-H522, 2.65 µM (inactive); with MDA-MB-231, 3.45 µM (inactive). Besides, the GI50 was 1.83 µM (inactive) with UACC-62; 2.77 µM (inactive) in the experiment with CCRF-CEM; 2.81 µM (inactive) in the experiment with OVCAR-4; 1.74 µM (inactive) with SK-MEL-5; 2.92 µM with HCT-15; 7.31 µM (inactive) in the experiment with NCI/ADR-RES. Further, the GI50 in the experiment with OVCAR-5 was 3.95 µM (inactive); in the experiment on CAKI-1, 1.71 µM (inactive); with MOLT-4 it was 2.07 µM (inactive); with EKVX it was 6.78 µM (inactive); in the experiment with HCT-116, 3.46 µM (inactive); with TK-10, 7.67 µM (inactive). For the same compound, in the experiment on A498, the GI50 was 2.98 µM (inactive).
Regarding `COCCOC(=O)C(C)=[N+]=[N-]`, the GI50 in the experiment with 786-0, with RXF 393, with Hs-578T, with COLO 205, in the experiment with NCI-H522 and in the experiment on MDA-MB-231 was > 100 µM (inactive) throughout. The GI50 in the experiment with UACC-62 is > 100 µM (inactive); in the experiment with OVCAR-4 it was > 100 µM (inactive); in the experiment on SK-MEL-5, > 100 µM (inactive); in the experiment with HCT-15, > 100 µM; with NCI/ADR-RES it was > 100 µM (inactive); in the experiment with OVCAR-5 it was > 100 µM (inactive). Also, the GI50 in the experiment with CAKI-1, in the experiment with EKVX, with HCT-116, in the experiment on TK-10 and with A498 was > 100 µM (inactive) throughout.
Turning to `CC(=O)OC1c2ccccc2CC2(OC(C)=O)c3ccccc3C12` (stereo unspecified), the GI50 was > 100 µM (inactive) in the experiment on 786-0; > 100 µM (inactive) with RXF 393; > 100 µM (inactive) in the experiment with Hs-578T; > 10 µM (inactive) in the experiment on HL-60; > 100 µM (inactive) in the experiment on COLO 205; > 100 µM (inactive) in the experiment on MDA-MB-231. Moreover, the GI50 was > 100 µM (inactive) in the experiment on UACC-62; > 100 µM (inactive) in the experiment with CCRF-CEM; > 100 µM (inactive) in the experiment on OVCAR-4; > 100 µM in the experiment with HCT-15; > 100 µM (inactive) in the experiment with NCI/ADR-RES; > 100 µM (inactive) in the experiment with OVCAR-5. The GI50 in the experiment on CAKI-1, with MOLT-4, with EKVX, in the experiment with HCT-116, in the experiment on TK-10 and in the experiment on A498 was > 100 µM (inactive) throughout.
In the case of `COc1ccc(/C=C2\CCC(C)C3C2=NN(c2ccccc2)C3c2ccc(OC)c(OC)c2)cc1OC` (stereo unspecified), the GI50 in the experiment with 786-0 is 3.48 µM (inactive); with RXF 393 it was 3.23 µM (inactive); in the experiment on Hs-578T it was 7.29 µM (inactive); in the experiment on HL-60 it was 1.54 µM (inactive); with COLO 205, 4.22 µM (inactive); in the experiment on MDA-MB-231, 4.19 µM (inactive). Moreover, the GI50 in the experiment on UACC-62 was 3.43 µM (inactive); in the experiment on CCRF-CEM, 1.87 µM (inactive); in the experiment on SK-MEL-5, 3.61 µM (inactive); in the experiment on HCT-15, 3.01 µM; in the experiment on NCI/ADR-RES, 3.18 µM (inactive); with OVCAR-5 it was 2.65 µM (inactive). Moreover, the GI50 is 3.94 µM (inactive) with CAKI-1; 2.7 µM (inactive) in the experiment with MOLT-4; 1.74 µM (inactive) in the experiment on EKVX; 2.07 µM (inactive) with HCT-116; 3.22 µM (inactive) with TK-10; 3.42 µM (inactive) in the experiment on A498.
With `O=C1CC(CC(O)C(O)CO)CC(=O)N1` (stereo unspecified), the GI50 in the experiment with 786-0, in the experiment with Hs-578T, in the experiment on HL-60, in the experiment with NCI-H522, in the experiment on MDA-MB-231 and with CCRF-CEM was > 100 µM (inactive) in each case. The GI50 in the experiment on SK-MEL-5 was > 100 µM (inactive); in the experiment with HCT-15 it was > 100 µM; with NCI/ADR-RES, > 100 µM (inactive); with CAKI-1 it was > 100 µM (inactive); with MOLT-4, > 100 µM (inactive); in the experiment with EKVX it was > 100 µM (inactive). Further, the GI50 with HCT-116, in the experiment with TK-10 and in the experiment on A498 was > 100 µM (inactive) throughout.
Take `C/C(=N\NS(=O)(=O)c1ccc(C)cc1)c1ccccn1`: the GI50 is 45.3 µM (inactive) with 786-0; > 100 µM (inactive) in the experiment on RXF 393; 87.3 µM (inactive) in the experiment with Hs-578T; 34 µM (inactive) in the experiment on HL-60; 32.7 µM (inactive) in the experiment on COLO 205; > 100 µM (inactive) in the experiment on MDA-MB-231. Moreover, the GI50 in the experiment on UACC-62 was 40.2 µM (inactive); in the experiment on CCRF-CEM, 18.5 µM (inactive); in the experiment with OVCAR-4, 68.2 µM (inactive); in the experiment with SK-MEL-5, 33.4 µM (inactive); with HCT-15 it was 38.5 µM; with NCI/ADR-RES, 38 µM (inactive). Further, the GI50 with OVCAR-5 was > 100 µM (inactive); in the experiment on CAKI-1, 36 µM (inactive); with MOLT-4, 21.2 µM (inactive); in the experiment on EKVX it was 35.5 µM (inactive); with HCT-116, 40.7 µM (inactive); in the experiment with TK-10, 70.6 µM (inactive). In the experiment with A498, the GI50 was 24.3 µM (inactive).
